In brackets after ≈: the same amount, converted by molar mass.
How the values were obtained:
[1] = Cytotoxicity against human PLC/PRF/5 cells; format: functional; settings: read-out: ED50 (the source's name)
KB = assay: Cytotoxicity against human KB cells; format: functional; settings: read-out: ED50 (the source's name)

With `Cc1cc(O)c2c(c1)C(=O)c1cc(O)cc(O)c1C2=O` [EMODIN] the EC50 [1] was 5.91 µg/mL (≈ 21.9 µM) and the EC50 (KB) was 3.46 µg/mL (≈ 12.8 µM).
In the case of `Cc1cc(O)c2c(c1)C(=O)c1cc(O[C@@H]3OC[C@](O)(CO)[C@H]3O)cc(O)c1C2=O` [FRANGULIN B], the EC50 [1] is reported as 0.8 µg/mL (≈ 1.99 µM) and the EC50 (KB) is reported as 2.49 µg/mL (≈ 6.19 µM).
In the case of `COc1cc(O)c2c(c1)C(=O)c1cc(C)cc(O)c1C2=O` [PHYSCION], the EC50 [1] is reported as 1.44 µg/mL (≈ 5.07 µM) and the EC50 (KB) is reported as 1.55 µg/mL (≈ 5.45 µM).
`Cc1cc(O)c2c(c1)C(=O)c1cccc(O)c1C2=O` [CHRYSOPHANOL] showed an EC50 [1] of 3.23 µg/mL (≈ 12.7 µM) and an EC50 (KB) of 5.68 µg/mL (≈ 22.3 µM).

From ChEMBL document CHEMBL1149724, “Nakahalene and Cytotoxic principles of Formosan Rhamnus Species” (1992)
